“Also recorded” adds a separate entry of the source.
How the values were obtained:
[1] = test system: AhR; test: AhR luciferase reporter in mouse hepatoma cells H1L6.1c3; format: cell-based; design: dose or concentration left out as unconfirmed; settings: higher RLU at 2 h lasting until 24h
Description: The ability of 1ME3CA was comparatively assessed here in mouse hepatoma cells (H1L6.1c3), kindly provided by Allison K. Ehrlich (Meyer Hall, University of California, Davis, United States), containing the stably integrated AhR xenobiotic responsive element driven by a firefly luciferase reporter plasmid, pGudLuc6.167. Cells were plated in MEMA (Gibco), supplemented with 10% fetal serum bovine and 1% penicillin-streptomycin solution, in 24-well plate and stimulated with different concentrations of either 3-IAld or 1ME3CA. Luciferase activity, calculated as relative light units (RLU) per microgram of protein and expressed as fold induction, was carried at 2 or 24 hours of exposure.

[2] = test system: DSS+anti-CTLA-4-induced colitis; test: DSS+anti-CTLA-4-induced colitis in C57BL/6 mice; format: in vivo; settings: for lymphocytic infiltration, dose dependence: 0.09-0.045-0.022 mg/mouse (4.5, 2.25 and 1.12 mg/kg), lung, spleen, liver, kidney; for efficacy dose: intragastrically every other day, Eudragit formulations
Description: In trials, C57BL/6 mice received dextran sulfate sodium (DSS) (3%) in their drinking water and 100 μg anti-CTLA-4 monoclonal antibody (mAb) or isotype control antibody intraperitoneally, at days 0, 4 and 8 following the DSS administration as indicated in FIG. 2A. DSS is a water soluble, negatively charged sulfated polysaccharide with a highly variable molecular weight ranging from 5 to 1400 kDa. […] Eudragit-formulated 3-IAld (Puccetti et al, 2018) was given at 18 mg/kg 3-IAld intragastrically every other day, as illustrated in FIG. 2A. Animals were monitored daily for appearance of diarrhea, fecal blood, loss of body weight and survival. A week after DSS treatment (14 days after initiation of treatment), at the time at which the model recapitulates the human disease (Manicassamy et al, 2014), surviving mice were sacrificed, and the colon was excised and evaluated for macroscopic damage and local immune parameters.
In trials, C57BL/6 mice received dextran sulfate sodium (DSS) (3%) in their drinking water and 100 μg anti-CTLA-4 monoclonal antibody (mAb) or isotype control antibody intraperitoneally, at days 0, 4 and 8 following the DSS administration as indicated in FIG. 17A. Eudragit-formulated 1-methylindole-3-carboxylic acid was given intragastrically every other day, at scaling doses of 0.09, 0.18, or 0.36 mg/mouse (FIG. 17A). Animals were monitored daily for the appearance of diarrhea, fecal blood and loss of body weight. A week after DSS treatment (14 days after initiation of treatment), at the time at which the murine model recapitulates the human disease (Manicassamy et al, 2014), surviving mice were sacrificed and the colon was excised and evaluated for macroscopic damage and local immune parameters. […] CTLA-4 haploinsufficiency typically presents with extensive CD3+T cell infiltration across different organs (Kuehn et al, 2014—Schubert et al, 2014—Schwab et al, 2018).
In the DSS+anti-CTLA-4-induced colitis, mice were treated intragastrically (Eudragit formulations) every other day starting 4 days before DSS treatment and continuing until mice sacrifice. Mice were evaluated for disease activity in terms of histopathology, parameters of barrier permeability function and intestinal inflammation.
Assessment of scaling doses of 0.09-0.045-0.022 mg/mouse (corresponding to 4.5, 2.25 and 1.12 mg/kg) in the murine model of immune-mediated colitis (DSS+anti-CTLA-4) was performed as shown in Table 2 below.
C57BL/6 mice were treated with DSS in drinking water for 1 week followed by a recovery period of another week and administered […] of anti-CTLA-4 mAb and 1ME3CA as depicted in the experimental schedule in FIG. 23A. Mice were evaluated for weight change (FIG. 23B), disease activity index (FIG. 23C), clinical morbidity and rectal bleeding (FIG. 23D), colon and ileum histology (FIG. 23E) (PAS staining), ×40 magnification (scale bars, 100 m). Each in vivo experiment includes four to six mice per group (20 mice in each experiment).
Photographs were taken with a high-resolution microscope, lung and spleen ×10 magnification (scale bars, 400 m) and liver and kidney ×20 magnification (scale bars, 200 m).

[3] = test system: LLC cells; test: Lewis lung carcinoma (LLC) model with anti-PD-1 antibody; format: in vivo, C57BL/6 mice
Description: (§1) For FIGS. 12A-12E, C57BL/6 mice were subcutaneously injected with B16 tumor cells and administered 100 μg anti-CTLA-4 mAb or isotype control intraperitoneally four times at 3-day intervals up to 16 days. 3-IAld was administered intragastrically every other day. Mice were evaluated for (FIG. 12A) tumor growth, (FIG. 12B) histology (periodic acid-Schiff staining), (FIG. 12C) immunohistochemistry for CD8+ and CD4+ tumor-infiltrating lymphocytes (TIL), (FIG. 12D) number of positive TIL per high-power field, HPF and (FIG. 12E) Cxcl9 and Perforin expression. (FIGS. 12F-12J) C57BL/6 mice were orthotopically injected with LLC cells and administered 200 μg anti-PD-1 mAb or isotype control intraperitoneally five times at 3-day intervals up to 18 days. 3-IAld was administered intragastrically every other day. Mice were evaluated for (FIG. 12F) % survival, (FIG. 12G) lung weight, (FIG. 12H) lung gross pathology, (FIGS. 12I, 12J) CD4+CD25+Foxp3+ cells. Photographs were taken with a high-resolution microscope, ×40 magnification (scale bars, 100 μm). Each in vivo experiment includes three mice per group (nine mice in each experiment). Data are represented as mean±SEM. One-way analysis of variance, Bonferroni post hoc test. *P<0.05, **P<0.01, ***P<0.001.
(§2) The potential application of 3-IAld requires that its immunoregulatory activity would not impinge the tumor immunosurveillance. To this purpose, the effect of 3-IAld was assessed in the anti-CTLA-4-responsive B16 melanoma model (Renga et al, 2022).

[4] = test system: B16 tumor cells; test: anti-CTLA-4-responsive B16 melanoma model; format: in vivo, C57BL/6 mice
Description: as §1, with “Data are represented as mean±SEM. One-way analysis of variance, Bonferroni post hoc test. *P<0.05, **P<0.01, ***P<0.001.” left out
as §2

[5] = toxicology, 3 weeks, H&E tissue pathology in naive C57BL/6 and AhR−/− mice; format: in vivo; settings: Eudragit-formulated, intragastrically every other day for 3 weeks, two concentrations
From the text: Eudragit-formulated 3-IAld (Puccetti et al, 2018) was given intragastrically every other day, at the doses indicated for 3 weeks to naive C57BL/6 and AhR−/− mice. At the end of treatment, mice were sacrificed, and tissue pathology blindly examined on different organs after Hematoxylin and Eosin (H&E) staining.

[6] = 1-methylindole-3-carboxylic acid
[7] = 1-methylindole-3-carboxylic acid 0.09, 0.18 or 0.36 mg/mouse every other day
[8] = 1-methylindole-3-carboxylic acid 0.09-0.36 mg/mouse
[9] = 3-IAld 18 mg/kg, colon homogenates
[10] = 3-IAld 18 mg/kg, surviving mice, 14 days
[11] = Eudragit-formulated 3-IAld 18 mg/kg intragastrically every other day

Cn1cc(C(=O)O)c2ccccc21 [1-methylindole-3-carboxylic acid, 1-Methyl-1H-indole-3-carboxylic acid]
induction of luciferase activity (RLU, fold induction) versus 3-IAld [1]: more potent inducer of luciferase activity | inflammatory pathology, dose dependence ([2]; 0.09-0.045-0.022 mg/mouse): protects from inflammatory pathology | lymphocytic infiltration, dose dependence ([2]; listed as 1ME3CA): reduces lymphocytic infiltration in anti-CTLA-4-treated mice in a dose-dependent manner | lymphocytic infiltration, dose dependence ([2]; listed as MECA): reduces lymphocytic infiltration | Il1b expression in the colon [2, 6]: reduced levels | Il10 expression in the colon [2, 6]: increased levels | anti-inflammatory state and AhR activation [2, 6]: promotes an anti-inflammatory state and AhR activation | clinical morbidity and rectal bleeding [2, 7]: protected | disease activity index [2, 7]: decreased | CD3+ T cell (lymphocytic) infiltration in the lung [2, 8]: effective in reducing; also recorded: reduces lymphocytic infiltration | CD3+ T cell infiltration in the ileum and colon [2, 8]: significantly reduced | gut inflammatory pathology (overall) [2, 8]: prevent gut inflammatory pathology; also recorded: protects from inflammatory pathology | normal architectural structure of the colon and ileum [2, 8]: recovery | epithelial barrier function (expression of ZO-1) ([2]; 1-methylindole-3-carboxylic acid 0.09-0.36 mg/mouse, colon and ileum): maintenance | expression of the AhR-dependent genes Cyp1a1, the antimicrobial peptide Reg3g, and 1122 ([2]; 1-methylindole-3-carboxylic acid, listed as 1-Methylindole-3-Carboxylic Acid): Potent Activator | expression of the AhR-dependent genes Cyp1a1, the antimicrobial peptide Reg3g, and 1122 ([2]; 1-methylindole-3-carboxylic acid, listed as 1-methylindole-3-carboxylic): induced the expression | body weight loss ([2]; Eudragit-formulated 1-methylindole-3-carboxylic acid 0.09, 0.18 or 0.36 mg/mouse intragastrically every other day): significant attenuation | effects at each administered dose ([2]; each dose including 0.09 mg/mouse): Positive effects | efficacy dose [2]: 2.25 mg/kg

O=Cc1c[nH]c2ccccc12 [3-IAld, 1H-indole-3-carbaldehyde]
therapeutic efficacy of anti-PD-1 antibody ([3]; 3-IAld with 200 μg anti-PD-1 mAb): did not interfere | ability of anti-PD-1 antibody to increase survival ([3]; 3-IAld with anti-PD-1 mAb): did not prevent | ability of anti-PD-1 antibody to reduce the recruitment of Foxp3+CD25+ Treg cells in the lung ([3]; 3-IAld with anti-PD-1 mAb): did not prevent | ability of anti-PD-1 antibody to improve gross pathology ([3]; 3-IAld with anti-PD-1 mAb, lung): did not prevent | ability of anti-PD-1 antibody to decrease tumour growth ([3]; 3-IAld with anti-PD-1 mAb, lung weight): did not prevent | anti-inflammatory state ([2]; 3-IAld 18 mg/kg): promotes an anti-inflammatory state | epithelial barrier integrity ([2]; 3-IAld 18 mg/kg): provides epithelial barrier integrity | expression of IL-22 (gene and protein) ([2]; 3-IAld 18 mg/kg): induced expression | expression of Lgr5, Nfil3 and Muc1 ([2]; 3-IAld 18 mg/kg): promoted the expression | expression of the AhR-dependent genes Cyp1a1 and Ahrr ([2]; 3-IAld 18 mg/kg): induced expression | expression of the antimicrobial peptide Reg37 ([2]; 3-IAld 18 mg/kg): induced expression | gut inflammatory pathology (overall) ([2]; 3-IAld 18 mg/kg intragastrically every other day): prevent gut inflammatory pathology; also recorded: protects from inflammatory pathology | amounts of IL-10 [2, 9]: increased amounts | levels of TNF-α, IL-10 and IL-17A [2, 9]: reduced levels | levels of calprotectin [2, 9]: reduced | passage of dextran-FITC across the intestinal barrier ([2]; 3-IAld 18 mg/kg, serum): reduced | epithelial barrier function (expression of ZO-1) [2, 10]: recovery | epithelial cell proliferation and renewal (Ki-67 staining) [2, 10]: recovery | gross pathology [2, 10]: improved | normal architecture structure of the colon [2, 10]: recovery | body weight [2, 11]: increased | disease activity index [2, 11]: decreased | survival [2, 11]: increased | efficacy dose [2]: 18 mg/kg | recruitment of CD4+ and CD8+ tumour-infiltrating lymphocytes ([4]; 3-IAld with anti-CTLA-4 mAb): did not affect | development of antitumor immunity / tumor immunosurveillance (overall) ([4]; B16 and LLC models): does not interfere | tissue pathology in different organs (H&E) [5]: absence of visible tissue pathology

Reference: US20250090498A1, “TREATMENT OF PRIMARY CTLA-4 CHECKPOINT RELATED IMMUNODEFICIENCIES” (ADIENNE PHARMA & BIOTECH SA, priority 2023, published 2025)
